Source: ChEMBL document CHEMBL4376903, “Cereblon Based Immunomodulatory Therapeutics” (ACS Med Chem Lett, 2020)

Legend:
Format in all cases: cell-based
[1] = target: T1, Protein cereblon/Estrogen receptor (Homo sapiens, UniProt P03372+Q96SW2); experiment: Protac activity at cereblon/ERalpha in human MCF7 cells assessed as induction of ERalpha protein degradation by Western blot analysis
Target sequence in this assay (Q96SW2 whole entry, one chain of several): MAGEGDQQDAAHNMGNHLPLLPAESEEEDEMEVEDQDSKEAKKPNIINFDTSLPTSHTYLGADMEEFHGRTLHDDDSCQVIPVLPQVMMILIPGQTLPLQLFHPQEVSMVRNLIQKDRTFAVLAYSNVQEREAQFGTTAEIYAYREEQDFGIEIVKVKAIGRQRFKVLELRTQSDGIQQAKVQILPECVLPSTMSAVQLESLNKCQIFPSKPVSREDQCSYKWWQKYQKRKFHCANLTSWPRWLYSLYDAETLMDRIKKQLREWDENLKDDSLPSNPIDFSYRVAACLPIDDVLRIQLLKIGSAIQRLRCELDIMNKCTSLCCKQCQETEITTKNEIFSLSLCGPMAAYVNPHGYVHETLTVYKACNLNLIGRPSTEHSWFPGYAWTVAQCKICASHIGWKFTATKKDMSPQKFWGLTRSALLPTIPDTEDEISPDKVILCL

Estrogen receptor = target: T2, Estrogen receptor (Homo sapiens, UniProt P03372); experiment: Inhibition of ERalpha in human T47D cells by ERE-driven luciferase reporter gene assay based target engagement assay
T2 sequence (P03372 whole entry): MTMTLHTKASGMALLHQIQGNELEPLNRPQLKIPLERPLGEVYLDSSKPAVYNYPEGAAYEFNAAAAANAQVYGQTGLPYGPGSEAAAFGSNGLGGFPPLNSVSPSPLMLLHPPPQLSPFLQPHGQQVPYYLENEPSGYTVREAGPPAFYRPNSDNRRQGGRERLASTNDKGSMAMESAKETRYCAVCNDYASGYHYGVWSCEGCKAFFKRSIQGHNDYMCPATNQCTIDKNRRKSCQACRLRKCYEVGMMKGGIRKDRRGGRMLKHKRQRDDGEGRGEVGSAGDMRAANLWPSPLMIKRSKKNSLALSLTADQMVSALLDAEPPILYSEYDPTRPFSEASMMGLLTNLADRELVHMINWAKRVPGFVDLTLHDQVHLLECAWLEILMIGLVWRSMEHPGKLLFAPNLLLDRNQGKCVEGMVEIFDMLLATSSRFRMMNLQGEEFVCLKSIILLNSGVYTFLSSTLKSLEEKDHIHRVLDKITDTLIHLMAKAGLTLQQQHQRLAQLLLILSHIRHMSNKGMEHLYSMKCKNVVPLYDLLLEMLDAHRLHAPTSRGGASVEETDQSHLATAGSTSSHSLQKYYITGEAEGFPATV

[2] = target: T1, Protein cereblon/Estrogen receptor; experiment: Protac activity at cereblon/ERalpha in human MCF7 cells assessed as induction of ERalpha protein degradation by Western blot analysis relative to control
Target sequence in this assay (Q96SW2 whole entry, looked up, one chain of several): as the sequence (Q96SW2 whole entry, one chain of several) above

## O=C1CCC(N2Cc3cc(N4CCN(CCC5(O)CC(Oc6ccc([C@@H]7c8ccc(O)cc8CC[C@@H]7c7ccccc7)cc6)C5)CC4)cc(OC(F)F)c3C2=O)C(=O)N1 (some centres undefined)
[1]
  DC50: < 1 nM
Estrogen receptor
  IC50: 0.5 nM
[2]
  Emax: 50 to 75%

## COc1cc(N2CCN(CCCCCOc3ccc([C@@H]4c5ccc(O)cc5CC[C@@H]4c4ccccc4)cc3)CC2)cc2c1C(=O)N([C@@H]1CCC(=O)NC1=O)C2
[1]
  DC50: < 1 nM
Estrogen receptor
  IC50: 0.37 nM
[2]
  Emax: > 75%

## COc1cc(N2CCN(CCCCCOc3ccc([C@@H]4c5ccc(O)cc5CC[C@@H]4c4ccccc4)cc3)CC2)cc2c1C(=O)N(C1CCC(=O)NC1=O)C2 (some centres undefined)
[1]
  DC50: 1 to 10 nM
Estrogen receptor
  IC50: 0.79 nM
[2]
  Emax: > 75%

## COc1cc(N2CCN(CC(=O)C3CC(Oc4ccc([C@@H]5c6ccc(O)cc6CC[C@@H]5c5ccccc5)cc4)C3)CC2)cc2c1C(=O)N(C1CCC(=O)NC1=O)C2 (some centres undefined)
[1]
  DC50: < 1 nM
Estrogen receptor
  IC50: 0.7 nM
[2]
  Emax: > 75%

## COc1cc(N2CCN(C3CC4CC(Oc5ccc([C@@H]6c7ccc(O)cc7CC[C@@H]6c6ccc(F)cc6)cc5)CC4C3)CC2)cc2c1C(=O)N(C1CCC(=O)NC1=O)C2 (some centres undefined)
[1]
  DC50: < 1 nM
Estrogen receptor
  IC50: 0.82 nM
[2]
  Emax: 50 to 75%

## COc1cc(N2CCN(CCC3CCN(c4ccc([C@@H]5c6ccc(O)cc6CC[C@@H]5c5ccccc5)cc4F)CC3)CC2)cc2c1C(=O)N(C1CCC(=O)NC1=O)C2 (some centres undefined)
[1]
  DC50: 1 to 10 nM
Estrogen receptor
  IC50: 0.7 nM
[2]
  Emax: > 75%

## COc1cc(N2CCN(CCC3(O)CC(Oc4ccc([C@@H]5c6ccc(O)cc6CC[C@@H]5c5ccccc5)cc4)C3)CC2)cc2c1C(=O)N(C1CCC(=O)NC1=O)C2 (some centres undefined)
[1]
  DC50: < 1 nM
Estrogen receptor
  IC50: 0.3 nM
[2]
  Emax: > 75%

## COc1cc(N2CCN(CCCCCOc3ccc([C@@H]4c5ccc(O)cc5CC[C@@H]4c4ccccc4)cc3)CC2)cc2c1C(=O)N([C@H]1CCC(=O)NC1=O)C2
[1]
  DC50: < 1 nM
Estrogen receptor
  IC50: 0.49 nM
[2]
  Emax: > 75%
